Results published in PubChem BioAssay AID2060502 (Molecular Pharmacology Branch, DTP, NCI, 2025).

System: 885724-159-R-J1-PDC complex spheroid viability
Assay: Anticancer human tumor 885724-159-R-J1-PDC patient-derived pancreatic adenocarcinoma cell line growth inhibition [GQUAD]
Conditions: for IC50: curve of first compound; for viability, T/C: stronger effect = lower value
Source text: DNA G-quadruplex Stabilizer Agents in Combinations in Complex Spheroids
A high-throughput screen of multi-cell type tumor spheroids was designed to identify active combinations of DNA G-quadruplex stabilizer agents and targeted small molecules. Complex spheroids include a stromal component modeled by human endothelial cells (HUVEC) and fibroblasts modeled by human mesenchymal stem cells (MSCs). The concentration ranges selected for each drug and investigational agent were based upon clinically achievable concentrations if the clinical Cmax of the agent was known.
Compounds. The drugs and investigational agents: pidnarulex (CX-5461; NSC782164), APTO-253 (NSC789042), BRACO-19 (NSC847499), peposertib (NSC802822), ceralasertib (NSC780249), elimusertib (NSC800525), camonsertib (NSC841442), AZD-1390 (NSC803789), olaparib (NSC753686), talazoparib (NSC767125), ART-558 (NSC835418), sotorasib (NSC818433), MRTX-1133 (NSC836407), SN-38 (NSC673596), topotecan (NSC609699), etoposide (NSC141540), doxorubicin (NSC123127), gemcitabine (NSC613327), 5-fluorouracil (NSC19893), paclitaxel (NSC125973), vemurafenib (NSC761431), panobinostat (NSC761190), R-306465 (JNJ-16241199; NSC773264), adavosertib (NSC754352), TP-3654 (NSC805149), carboplatin (NSC241240), KSQ-4279 (NSC840948), and staurosporine (NSC755774) were obtained from the National Cancer Institute (NCI) Developmental Therapeutics Program Chemical Repository (34). The FDA-approved anticancer drug set is available from the NCI Developmental Therapeutics Program. […] The stock solutions were prepared in dimethyl sulfoxide (DMSO, Sigma-Aldrich, St. Louis, MO, cat. D2650) at 800-fold the tested concentration and stored at -70 degrees C prior to their use. All drugs and investigational agents were tested over a range starting from a high concentration at or near the clinical Cmax and decreasing in half-log increments. If the clinical Cmax for an agent had not been determined, the highest concentration tested was 10 microM.
2.3 Cell Culture. All cells were maintained in an incubator at 37 degrees C and 5% CO2 with 95% humidity. The PDC lines were cultured according to standard operating procedures established by the NCI PDMR. All PDCs were thawed and cultured in Matrigel-coated flasks prepared with a working solution of 1X Ham's F-12 nutrient mix, without supplementation (Invitrogen, cat. 11765054), 100 U/mL penicillin-streptomycin (Invitrogen, cat. 15140122), and 2.5% Matrigel (Corning Inc., cat. 354248) for the first three passages. The 857933-349-R-J2-PDC line was cultured in 6C/Colon 1B media, which includes advanced DMEM/F-12 (Thermo Fisher Scientific, cat. 12634028), 10 mM HEPES (Thermo Fisher Scientific, cat. 15630080), 1X GlutaMAX supplement (Thermo Fisher Scientific, cat. 35050061), 0.1 mg/mL primocin (InvivoGen, cat. ant-pm-2), 10% defined fetal bovine serum, heat inactivated (HyClone Laboratories Inc., cat. SH30070.03HI), 50% L-WRN conditioned media (ATCC, cat. CRL-3276), 1.25 mM N-Acetyl-L-cysteine (Sigma-Aldrich, cat. A9165), 10 mM nicotinamide (Sigma-Aldrich, cat. N0636), 1X B-27 supplement (Thermo Fisher Scientific, cat. 17504044), 1X N-2 supplement (Thermo Fisher Scientific, cat. 17502048), 10 microM Y-27632 dihydrochloride (Tocris Bioscience, cat. 1254), and 50 ng/mL human EGF recombinant protein (Thermo Fisher Scientific, cat. PHG0311). The 485176-168-R4-J1-PDC line was cultured in Panc media, which includes all 6C/Colon 1B media components plus 100 ng/mL human FGF-10 (Thermo Fisher Scientific, cat. 100-26), 500 nM SB-431542 (Selleckchem, cat. S1067), and gastrin (Tocris, cat. 3006).
[…]

[1] = second compound 0.0316 µM, first compound 0.0316 µM
[2] = second compound 0.0316 µM, first compound 0.1 µM
[3] = second compound 0.0316 µM, first compound 0.316 µM
[4] = second compound 0.0316 µM, first compound 1 µM
[5] = second compound 0.0316 µM, first compound 3.16 µM
[6] = second compound 0.0316 µM, first compound 10 µM
[7] = second compound 0.1 µM, first compound 0.0316 µM
[8] = second compound 0.1 µM, first compound 0.1 µM
[9] = second compound 0.1 µM, first compound 0.316 µM
[10] = second compound 0.1 µM, first compound 1 µM
[11] = second compound 0.1 µM, first compound 3.16 µM
[12] = second compound 0.1 µM, first compound 10 µM
[13] = second compound 0.316 µM, first compound 0.0316 µM
[14] = second compound 0.316 µM, first compound 0.1 µM
[15] = second compound 0.316 µM, first compound 0.316 µM
[16] = second compound 0.316 µM, first compound 1 µM
[17] = second compound 0.316 µM, first compound 3.16 µM
[18] = second compound 0.316 µM, first compound 10 µM
[19] = second compound 1 µM, first compound 0.0316 µM
[20] = second compound 1 µM, first compound 0.1 µM
[21] = second compound 1 µM, first compound 0.316 µM
[22] = second compound 1 µM, first compound 1 µM
[23] = second compound 1 µM, first compound 3.16 µM
[24] = second compound 1 µM, first compound 10 µM
[25] = second compound 3.16 µM, first compound 0.0316 µM
[26] = second compound 3.16 µM, first compound 0.1 µM
[27] = second compound 3.16 µM, first compound 0.316 µM
[28] = second compound 3.16 µM, first compound 1 µM
[29] = second compound 3.16 µM, first compound 3.16 µM
[30] = second compound 3.16 µM, first compound 10 µM
[31] = second compound 10 µM, first compound 0.0316 µM
[32] = second compound 10 µM, first compound 0.1 µM
[33] = second compound 10 µM, first compound 0.316 µM
[34] = second compound 10 µM, first compound 1 µM
[35] = second compound 10 µM, first compound 3.16 µM
[36] = second compound 10 µM, first compound 10 µM
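Note: spheroids exposed to agents for seven days before readout.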
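Throughout, for viability, T/C: percent of vehicle control viability where 100% = DMSO wells.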

C=CCn1c(=O)c2cnc(Nc3ccc(N4CCN(C)CC4)cc3)nc2n1-c1cccc(C(C)(C)O)n1 + Cc1cnc(CNC(=O)c2c(=O)c3ccc(N4CCCN(C)CC4)nc3n3c2sc2ccccc23)cn1
IC50 (second compound 0.0316 µM): > 10000 nM
IC50 (second compound 0.1 µM): > 10000 nM
IC50 (second compound 0.316 µM): > 10000 nM
IC50 (second compound 1 µM): > 10000 nM
IC50 (second compound 3.16 µM): > 10000 nM
IC50 (second compound 10 µM): > 10000 nM
viability, T/C [1]: 105%
viability, T/C [2]: 106%
viability, T/C [3]: 100%
viability, T/C [4]: 97.1%
viability, T/C [5]: 78.4%
viability, T/C [6]: 91.5%
viability, T/C [7]: 109%
viability, T/C [8]: 132%
viability, T/C [9]: 99.7%
viability, T/C [10]: 93.9%
viability, T/C [11]: 85.9%
viability, T/C [12]: 83.3%
viability, T/C [13]: 106%
viability, T/C [14]: 102%
viability, T/C [15]: 100%
viability, T/C [16]: 91.1%
viability, T/C [17]: 89.9%
viability, T/C [18]: 90%
viability, T/C [19]: 100%
viability, T/C [20]: 78.2%
viability, T/C [21]: 82.8%
viability, T/C [22]: 75.3%
viability, T/C [23]: 79.2%
viability, T/C [24]: 96.8%
viability, T/C [25]: 73.1%
viability, T/C [26]: 65.4%
viability, T/C [27]: 69.8%
viability, T/C [28]: 67.8%
viability, T/C [29]: 71.5%
viability, T/C [30]: 69.2%
viability, T/C [31]: 58.9%
viability, T/C [32]: 70.4%
viability, T/C [33]: 56.4%
viability, T/C [34]: 58.3%
viability, T/C [35]: 69.8%
viability, T/C [36]: 62%

COc1cccc2c1C(=O)c1c(O)c3c(c(O)c1C2=O)CC(O)(C(=O)CO)CC3OC1CC(N)C(O)C(C)O1 (centres undefined) + Cc1cnc(CNC(=O)c2c(=O)c3ccc(N4CCCN(C)CC4)nc3n3c2sc2ccccc23)cn1
IC50 (second compound 0.0316 µM): 2420 nM
IC50 (second compound 0.1 µM): 2030 nM
IC50 (second compound 0.316 µM): 1780 nM
IC50 (second compound 1 µM): 1340 nM
IC50 (second compound 3.16 µM): 1050 nM
IC50 (second compound 10 µM): 889 nM
viability, T/C [1]: 118%
viability, T/C [2]: 99.5%
viability, T/C [3]: 97.7%
viability, T/C [4]: 79.2%
viability, T/C [5]: 39.8%
viability, T/C [6]: 3.19%
viability, T/C [7]: 106%
viability, T/C [8]: 109%
viability, T/C [9]: 99%
viability, T/C [10]: 83.1%
viability, T/C [11]: 29.6%
viability, T/C [12]: 2.62%
viability, T/C [13]: 96.9%
viability, T/C [14]: 93%
viability, T/C [15]: 89.2%
viability, T/C [16]: 62.6%
viability, T/C [17]: 35.8%
viability, T/C [18]: 4.79%
viability, T/C [19]: 89.7%
viability, T/C [20]: 88.8%
viability, T/C [21]: 85.2%
viability, T/C [22]: 57.2%
viability, T/C [23]: 24.1%
viability, T/C [24]: 2.16%
viability, T/C [25]: 88.1%
viability, T/C [26]: 84.8%
viability, T/C [27]: 73.2%
viability, T/C [28]: 53.6%
viability, T/C [29]: 17.4%
viability, T/C [30]: 0.96%
viability, T/C [31]: 72.2%
viability, T/C [32]: 80.4%
viability, T/C [33]: 74%
viability, T/C [34]: 46.4%
viability, T/C [35]: 12.4%
viability, T/C [36]: 0.74%
